Test results published in patent US7998754B2, “In vitro method for the simultaneous detection and identification of antibiotics of different classes and corresponding diagnostic kit” (Unisensor S.A., priority 2005, dated 2011).
Like-named read-outs stand apart in the source and are kept apart here.

Tests used:
β-lactame receptor (RSA) [1] = biological target: T1, β-lactame receptor (RSA) (Staphylococcus aureus, UniProt P18357); type: binding; conditions: milk; for Ratio test/control: at the detection limit concentration; for Concentration detection limit: β-lactames, three-parameter test
T1 construct: made in house
T1 sequence (P18357 331-585 limits assumed): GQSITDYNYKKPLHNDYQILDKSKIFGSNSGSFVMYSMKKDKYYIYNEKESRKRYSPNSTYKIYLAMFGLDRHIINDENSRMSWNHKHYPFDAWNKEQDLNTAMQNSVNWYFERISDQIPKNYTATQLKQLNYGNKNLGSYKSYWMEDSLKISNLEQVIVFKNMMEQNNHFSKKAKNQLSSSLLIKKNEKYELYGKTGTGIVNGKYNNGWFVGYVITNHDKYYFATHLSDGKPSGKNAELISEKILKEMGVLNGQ
Experimental: This mixture is prepared either as required or lyophilisated for 20 hours. The Recovery System
The other capture zones are identical but differently positioned, as in FIG. 2.
A single control zone serves as a reference for the three markers.
(§1) 200 μL of cold milk are incubated at 50° C. in the presence of 50 μl of the reagents prepared and/or lyophilisated as above. After 3 minutes of incubation at 50° C., the above-described recovery element is immersed in the solution. The final interpretation is made after 3 minutes of incubation by means of an optical dipstick reader available at Matest (Germany).
As a general rule, if the ratio of the intensities of the concerned test signal relative to the control signal is less than or equal to 1, the sample is considered as positive for the parameter (compound) concerned.

β-lactame receptor (RSA) [2] = biological target: T1, β-lactame receptor (RSA); type: binding; conditions: milk; for Intensity ratio of parameter/control zone: at the detection limit concentration; for Detection limit: Concentration: β-lactames, positive when ratio test/control <= 1
Source text: (§2) For the detection of β-lactames, the reactive mixture comprises the specific receptor for recognising β-lactames, its specific antibody and a preparation of protein A conjugated with colloidal gold. For the detection of tetracyclines, the reactive mixture comprises the receptor of the tetracyclines, its specific antibody, a specific fragment of DNA conjugated with biotin and a preparation of protein A conjugated with colloidal gold.
(§3) The β-lactame receptor is obtained by the method described by Golemi-Kotra et al.^(6) The unpurified receptor is filtered on a Millex HV membrane (Millipore, Inc., USA) before it is stored at 4° C. in the presence of glycerol at 50% v/v.
(§4) This mixture is either prepared as required or lyophilisated for 20 hours. The Recovery System
(§5) The recovery system comprises a nitrocellulose membrane on which are fixed, at distinct points, the elements capable of forming a complex with the recognition molecules of the reactive mixture. These elements are: • for the “beta” signal (for β-lactame), an antibiotic, preferably of penicillin or cephalosporine type, fixed to a molecule with no particular reactivity to protein A, biotin or avidine. […] An egg-white avidine is preferably used.
(§6) In the case of a detection of two parameters, the preparations of β-lactoglobulin and avidine will be deposited on each side of the control line. For example, the β-lactoglobulin conjugate already prepared will be deposited below the control line and the neutralized avidine solution will be deposited above the control line (FIG. 1).
as §1, with “(Germany);” for “(Germany).”
(§7) As a general rule, when the ratio of the intensities of the concerned test signal relative to the control signal is less than or equal to 1, the sample is considered positive for the parameter (compound) concerned.

[3] = cited from earlier work; for MRL/EU: maximum residue level, European Union
[4] = system: tetracycline receptor (TetR); assay: Example 1 dipstick test in milk, "tetra" capture zone (format 1); type: binding, E. Coli
Source text: In addition, the recovery system is a specific and biotinylated fragment of DNA that can be fixed on a molecule of avidine attached to a nitrocellulose membrane. […] In this case, the fragment of DNA forms a complex with the receptor and a signal generated by the gold particles attached to the receptor appears.
as §2, §3
The DNA fragment is obtained at Eurogentec SA, Belgium according to the sequence and preparation described in patent application WO-A-03/048770. In this precise case, the DNA fragment is not fixed to a capture point on a nitrocellulose membrane but it is directly incorporated into the reactive mixture. This fragment will be recovered in testo by means of its biotinylated end on avidine fixed to a capture point (see below).
as §4, §5, §6
as §1, with “(Germany);” for “(Germany).”
as §7

| Molecule | Ratio test/control (β-lactame receptor (RSA) [1]) | Concentration detection limit (β-lactame receptor (RSA) [1]) [ppb] | Intensity ratio of parameter/control zone (β-lactame receptor (RSA) [2]) | Detection limit: Concentration (β-lactame receptor (RSA) [2]) [ppb] | Safe level/US [3] [ppb] | MRL/EU [3] [ppb] | other results |
| --- | --- | --- | --- | --- | --- | --- | --- |
| CC1(C)S[C@@H]2[C@H](NC(=O)[C@H](N)c3ccc(O)cc3)C(=O)N2[C@H]1C(=O)O [Amoxicillin] | 0.4 | 4 | 0.4 | 4 | 10 | 4 |  |
| CC1(C)S[C@@H]2[C@H](NC(=O)[C@H](N)c3ccccc3)C(=O)N2[C@H]1C(=O)O [Ampicillin] |  | 4 |  | 4 |  |  | Intensity: zone T ([4]; Ampi 1 ppb): 380; Intensity: zone T ([4]; Ampi 2 ppb): 405; Intensity: zone T ([4]; Ampi 3 ppb): 408; Intensity: zone T ([4]; Ampi 4 ppb): 386; Intensity: zone T ([4]; Ampi 5 ppb): 397; Intensity: zone T ([4]; Ampi 10 ppb): 414; Intensity: zone B (β-lactame receptor (RSA) [2]; Ampi 1 ppb): 380; Intensity: zone B (β-lactame receptor (RSA) [2]; Ampi 2 ppb): 250; Intensity: zone B (β-lactame receptor (RSA) [2]; Ampi 3 ppb): 155; Intensity: zone B (β-lactame receptor (RSA) [2]; Ampi 4 ppb + Tetra 75 ppb together): 122; Intensity: zone B (β-lactame receptor (RSA) [2]; Ampi 4 ppb): 105; Intensity: zone B (β-lactame receptor (RSA) [2]; Ampi 5 ppb): 55; Intensity: zone B (β-lactame receptor (RSA) [2]; Ampi 10 ppb): 25 |
| CC1(C)S[C@@H]2[C@H](NC(=O)Cc3ccccc3)C(=O)N2[C@H]1C(=O)O [Benzylpenicillin] |  | 2 |  | 2 |  |  |  |
| CO/N=C(\C(=O)N[C@@H]1C(=O)N2C(C(=O)O)=C(CSC(=O)c3ccco3)CS[C@H]12)c1csc(N)n1 [Ceftiofur] | 0.5 | 10 | 0.5 | 10 | 50 | 100 |  |
| CC(=O)OCC1=C(C(=O)O)N2C(=O)[C@@H](NC(=O)CSc3ccncc3)[C@H]2SC1 [Cephapyrin] | 0.3 | 8 | 0.3 | 8 | 20 | 60 |  |
| CN(C)[C@@H]1C(O)=C(C(N)=O)C(=O)[C@@]2(O)C(O)=C3C(=O)c4c(O)ccc(Cl)c4[C@@](C)(O)[C@H]3C[C@@H]12 [Chlortetracycline] |  |  |  |  | 300 | 100 |  |
| C[C@H]1c2cccc(O)c2C(=O)C2=C(O)[C@]3(O)C(=O)C(C(N)=O)=C(O)[C@@H](N(C)C)[C@@H]3[C@@H](O)[C@@H]21 [Doxycycline] |  |  |  |  | 300 | 100 |  |
| CN(C)[C@@H]1C(O)=C(C(N)=O)C(=O)[C@@]2(O)C(O)=C3C(=O)c4c(O)cccc4[C@@](C)(O)[C@H]3[C@H](O)[C@@H]12 [Oxytetracycline] |  |  |  |  | 300 | 100 |  |
| CN(C)[C@@H]1C(O)=C(C(N)=O)C(=O)[C@@]2(O)C(O)=C3C(=O)c4c(O)cccc4[C@@](C)(O)[C@H]3C[C@@H]12 [Tetracycline] |  |  |  |  | 300 | 100 |  |
| Cloxacycline | 0.5 | 10 | 0.5 | 10 | 10 | 30 |  |
